How the values were obtained:
Type in all cases: in vivo
[1] = tested on: Aphis Craccivora; test: Cowpea aphid (Aphis craccivora) potted cowpea plant spray test; settings: sprayed potted cowpea plants, population reduction assessed after 24, 72 and 120 hours, read-out: mortality in comparison with untreated controls
Experimental: The active compound was dissolved at the desired concentration in a mixture of 1:1 (vol:vol) distilled water:acetone. The test solution was prepared at the day of use.
Potted cowpea plants colonized with approximately 100-150 aphids of various stages were sprayed after the pest population has been recorded. Population reduction was assessed after 24, 72, and 120 hours.

[2] = tested on: Megoura viciae; test: Vetch aphid (Megoura viciae) leaf disk test, contact or systemic; settings: foliar, 120 h, sprayed broad bean leaf disks, adult aphids, 5 days, read-out: mortality in comparison with untreated controls
Experimental: For evaluating control of vetch aphid (Megoura viciae) through contact or systemic means the test unit consisted of 24-well-microtiter plates containing broad bean leaf disks.
The compounds were formulated using a solution containing 75% v/v water and 25% v/v DMSO. Different concentrations of formulated compounds were sprayed onto the leaf disks at 2.5 μl, using a custom built micro atomizer, at two replications.
After application, the leaf disks were air-dried and 5-8 adult aphids were placed on the leaf disks inside the microtiter plate wells. The aphids were then allowed to suck on the treated leaf disks and were incubated at about 23±1° C. and about 50±5% relative humidity for 5 days. Aphid mortality and fecundity were then visually assessed.

[3] = tested on: Heliothis virescens; test: Tobacco budworm (Heliothis virescens) insect diet egg/larval test; settings: 120 h, sprayed onto insect diet with eggs, egg and larval mortality, 5 days, read-out: mortality in comparison with untreated controls
Experimental: For evaluating control of tobacco budworm (Heliothis virescens) the test unit consists of 96-well-microtiter plates containing an insect diet and 15-25 H. virescens eggs.
The compounds were formulated using a solution containing 75% v/v water and 25% v/v DMSO. Different concentrations of formulated compounds were sprayed onto the insect diet at 10 μl, using a custom built micro atomizer, at two replications.
After application, microtiter plates were incubated at about 28±1° C. and about 80±5% relative humidity for 5 days. Egg and larval mortality was then visually assessed.

[4] = tested on: Myzus persicae; test: Green peach aphid (Myzus persicae) artificial diet test, systemic; settings: 72 h, in liquid artificial aphid diet, adult aphids, 3 days, read-out: mortality in comparison with untreated controls
Excerpt: For evaluating control of green peach aphid (Myzus persicae) through systemic means the test unit consisted of 96-well-microtiter plates containing liquid artificial diet under an artificial membrane.
The compounds were formulated using a solution containing 75% v/v water and 25% v/v DMSO. Different concentrations of formulated compounds were pipetted into the aphid diet, using a custom built pipetter, at two replications.
After application, 5-8 adult aphids were placed on the artificial membrane inside the microtiter plate wells. The aphids were then allowed to suck on the treated aphid diet and were incubated at about 23±1° C. and about 50±5% relative humidity for 3 days. Aphid mortality and fecundity was then visually assessed.

[5] = tested on: Bemisia Argentifolii; test: Silverleaf whitefly (Bemisia argentifolii) cotton plant spray test; settings: 72 h, sprayed cotton plants, whitefly adults, 3 days after treatment, read-out: mortality in comparison with untreated controls
Excerpt: The active compounds were formulated in cyclohexanone as a 10,000 ppm solution supplied in tubes. The tubes were inserted into an automated electrostatic sprayer equipped with an atomizing nozzle and they served as stock solutions for which lower dilutions were made in 50% acetone:50% water (v/v). A nonionic surfactant (Kinetic®) was included in the solution at a volume of 0.01% (v/v).
Cotton plants at the cotyledon stage (one plant per pot) were sprayed by an automated electrostatic plant sprayer equipped with an atomizing spray nozzle. The plants were dried in the sprayer fume hood and then removed from the sprayer. Each pot was placed into a plastic cup and about 10 to 12 whitefly adults (approximately 3-5 days old) were introduced. The insects were collected using an aspirator and a nontoxic Tygon® tubing connected to a barrier pipette tip. The tip, containing the collected insects, were gently inserted into the soil containing the treated plant, allowing insects to crawl out of the tip to reach the foliage for feeding. Cups were covered with a reusable screened lid. Test plants were maintained in a growth room at about 25° C. and about 20-40% relative humidity for 3 days, avoiding direct exposure to fluorescent light (24 hour photoperiod) to prevent trapping of heat inside the cup. Mortality was assessed 3 days after treatment, compared to untreated control plants.

SMILES	mortality at 100 ppm [1]	mortality at 800 ppm [2]	mortality at 800 ppm [3]	mortality at 800 ppm [4]	mortality at 300 ppm [5]
CCN(C1=NCCS1)c1sc(-c2cccnc2)nc1Cl [C.3, 4-chloro-N-(4,5-dihydrothiazol-2-yl)-N-ethyl-2-(3-pyridyl)thiazol-5-amine]	≥ 75%	≥ 75%	–	–	–
[O-][S+](c1ncccn1)c1cnc(-c2cccnc2)s1 (centres unmarked) [C.11, 2-(3-Pyridyl)-5-pyrimidin-2-ylsulfinyl-thiazole]	–	–	≥ 75%	–	–
CCN(C1=NCCS1)c1cnc(-c2cccnc2)s1 [C.1, N-(4,5-dihydrothiazol-2-yl)-N-ethyl-2-(3-pyridyl)thiazol-5-amine]	≥ 75%	≥ 75%	–	≥ 75%	≥ 75%
CCN(C1=NCCO1)c1sc(-c2cccnc2)nc1Cl [C.4, N-[4-chloro-2-(3-pyridyl)thiazol-5-yl]-N-ethyl-4,5-dihydrooxazol-2-amine]	≥ 75%	≥ 75%	–	≥ 75%	≥ 75%

Reference: US20150166528A1, “Pesticidal methods using substituted 3-pyridyl thiazole compounds and derivatives for combating animal pests” (BASF SE, priority 2012, published 2015)
